From patent US10945994B2, “Combinations comprising a pyrrolidine-2,5-dione IDO1 inhibitor and an anti-body” (Pfizer Inc., priority 2015, dated 2021)
Read-outs that look alike come from different tables or passages of the source.

How the values were obtained:
IDO1 [1] = biological target: T1, IDO1 (Homo sapiens (Human), UniProt P14902); experiment: IDO1 enzymatic activity by mass spectrometry assay; assay type: biochemical; details: human enzyme; varied tryptophan and inhibitor concentrations
Protocol: (§1) The full length complementary deoxyribonucleic acid (cDNA) for human IDO1 was cloned into a pFastbac-1 based vector and the full length cDNA for mouse and dog was cloned into a pET24a based vector. […] Human IDO1 was expressed in insect cells and purified using Ni affinity column. The mouse and dog IDO1 were expressed in Escherichia coli BL21 (DE3) and purified using a Ni affinity column. To obtain non-tagged, pure, and hemin loaded IDO1, TEV protease treated and tag removed protein was incubated with 10× molar ratio of hemin (dissolved in 25 mM NaOH) to protein at 4° C. overnight followed by size exclusion chromatography (SEC) for human IDO1 and anion exchange and SEC for mouse and dog IDO1.
The inhibition of human, dog and mouse IDO1 was measured by quantitating tryptophan and the generation of kynurenine by MS. […] The HCl stops the enzyme reactions and also converts the N-formyl kynurenine to kynurenine. […] Detection of tryptophan and kynurenine was accomplished following injection of assay reaction (injection loop volume is 10 μL) onto an Agilent Graphite Type D cartridge in 0.01% trifluoroacetic acid (TFA) plus 0.09% formic acid and eluted using 80% acetonitrile, 0.09% formic acid and 0.01% TFA. […]

dog IDO1 = dog IDO1 (Canis lupus familiaris, UniProt A0A8I3N1Y1); experiment: IDO1 enzymatic activity by mass spectrometry assay; assay type: biochemical; details: dog enzyme; varied tryptophan and inhibitor concentrations
Protocol: as §1
(§2) The inhibition of human, dog and mouse IDO1 was measured by quantitating tryptophan and the generation of kynurenine by MS. IDO1 enzyme (1 nM) was incubated with various concentrations of the inhibitor ([…] to 1 nM), in duplicate, at room temperature in […] buffer (Mg2+, Ca2+−PBS, 20 mM ascorbic acid, 10 mM methylene blue, 800 nM catalase, […]). […] The HCl stops the enzyme reactions and also converts the N-formyl kynurenine to kynurenine. […] Detection of tryptophan and kynurenine was accomplished following injection of assay reaction (injection loop volume is 10 μL) onto an Agilent Graphite Type D cartridge in 0.01% trifluoroacetic acid (TFA) plus 0.09% formic acid and eluted using 80% acetonitrile, 0.09% formic acid and 0.01% TFA. The finalized RapidFire settings were as follows: aspiration time: 600 ms or until the loop is full per the sip sensor, load time: 5000 ms, elution time: 5000 ms, and re-equilibration time: 500 ms at a flow rate of 1.5 mL/min.

mouse IDO1 = mouse IDO1 (Mus musculus (Mouse), UniProt P28776); experiment: IDO1 enzymatic activity by mass spectrometry assay; assay type: biochemical; details: MS assay; geometric mean (95% confidence interval); read-out: Enzyme Activity IC50 mouse IDO1
Protocol: as §1, §2

TDO2 [2] = biological target: T2, TDO2 (Homo sapiens (Human), UniProt P48775); experiment: Human TDO2 enzymatic assay; assay type: biochemical
Protocol: The protocol was adapted from Dolusic et al, 2011. Briefly, the reaction mixture ([…]) contained TRIS buffer (50 mM, pH 7.5), methylene blue (0.125 mM), ascorbic acid (0.25 M), catalase (40 units/mL) and human recombinant TDO2 enzyme (prepared as described in Dolusic et al, 2011; 0.9 mg) with increasing concentrations of compounds (1.0 nM to […]). The reaction was run with single replicate. The reaction was initiated by the addition of the substrate L-tryptophan (1 mM).

mouse TDO2 = mouse TDO2 (Mus musculus (Mouse), UniProt P48776); experiment: TDO2 activity assay in P815 mouseTDO2 clone 12 cells; assay type: cell-based
Protocol: P815 mTDO2 c112 cells were generated as described in Pilotte et al, Proc Natl Acad Sci, 109(7): 2497-2502 (2012). They were seeded in 96-well plates (50,000 cells/well), treated with increasing concentrations of compounds and incubated for 16-18 h. Kynurenine concentrations were determined as described above. The reaction was run with single replicate.

TDO2 [3] = biological target: T2, TDO2; experiment: TDO2 activity assay in A172 and THP-1 cells; assay type: cell-based; details: for A172 and THP-1 cells TDO2 inhibition: @50 μM; for inhibitory activity in any of the human or mouse TDO2 assays: human biochemical and cellular, murine cellular, concentrations of up to 50 μM
Protocol: A172 cells were seeded in 96-well plates (12500 cells/well), treated with increasing concentrations of compounds and incubated for 16-18 h at 37° C., 5% CO2. Then TCA was added to the supernatant to stop the reaction. […] Kynurenine concentrations were determined by measuring absorbance at 480 nm. The reaction was run with single replicate.
THP-1 cells were stimulated with 2 ng/ml PMA for 24 h, then seeded in 96-well plates (100,000 cells/well), treated with 2 ng/ml PMA and increasing concentrations of compounds, and incubated for 24 h. Kynurenine concentrations were determined as described above. The reaction was run with single replicate.

IDO1 [4] = biological target: T1, IDO1; experiment: Human whole blood assay (+ IFNγ/LPS); assay type: cell-based; details: read-out: unbound IC90, human whole blood
Protocol: Human whole blood was collected in sodium heparin and gently mixed. Then 25 mg/mL LPS (Sigma) and 100 ng/mL. IFNg (R&D) was added and transferred immediately to a 96-well U bottom plate, 200 mL per well. […] The final DMSO concentration was 0.5%. Following overnight incubation at 37° C., a 30 mL aliquot was precipitated with 270 mL acetonitrile/HPLC water (70:30), vortexed vigorously, and centrifuged at 3220×g for 15 minutes at 10° C. An aliquot of the supernatant organic solution was diluted in 0.1% Formic acid and spiked with stable labeled isotopes of kynurenine and tryptophan as internal standards prior to analysis. Kynurenine inhibition was determined by dividing the drug treated internal standard adjusted kynurenine counts by the positive control internal standard adjusted value. The no drug treated sample containing DMSO was used as the positive control. […] The IC50 and IC90 calculations were conducted in GraphPad Prism version 6.03.
In order to determine compound potency in a human cellular system, human whole blood was collected from 9 subjects. […] The unbound inhibitor IC50 and IC90 values were computed by applying a conversion for the unbound fraction value in whole blood, 0.419.

4T1 breast cancer cells = experiment: In vivo efficacy in 4T1 breast cancer syngeneic model; parameters: species or system Balb/c mice; details: 100 mg/kg BID oral
Protocol: In vivo efficacy studies were performed on 4T1 syngeneic tumor model of Balb/c mice implanted orthotopically in the mammary gland. One hundred thousand 4T1 breast cancer cells (ATCC® CRL-2539™)] were implanted orthotopically within the mammary gland of 7 weeks old Balb/c mice (day 0). Animals were randomized based on tumor size when tumor average reached 60 mm^3 (between day 7 and 11) into different treatment cohorts. The test compound was administered orally twice per day (approximately at 9 am and […]) starting the day of randomization. The test compounds were suspended into Methocel™ cellulose ether vehicle and sonicated before oral administration to animals using gavage needles. Treatment was administered daily until the end of the study. All experimental animals were monitored for body weight changes twice weekly. Tumor volume was measured twice a week by a caliper device and calculated with the following formula: Tumor volume=0.5×(length×width^2). Studies were terminated before tumor volumes reached […]. TGI (% tumor growth inhibition) was determined as […]

[5] = system: PancO2 pancreas cancer cells; experiment: In vivo efficacy in PancO2 pancreatic cancer syngeneic model; parameters: species or system C57/Bl6 mice; details: 200 mg/kg BID oral
Protocol: In vivo efficacy studies were performed on PancO2 syngeneic tumor model of C57/Bl6 mice implanted sub-cutaneously. Five millions PancO2 pancreas cancer cells were implanted sub-cutaneously to 7 weeks old C57/Bl6 mice (day 0). Animals were randomized based on tumor size when tumor average reached 60 mm^3 (between day 10 and 12) into different treatment cohorts. The Compound was administered orally twice per day (approximately at 9 am and 5 pm) starting the day of randomization. The test compound shown below in the table was suspended into Methocel® vehicle and sonicated before oral administration to animals using gavage needles. Treatment was administered daily until the end of the study. All experimental animals were monitored for body weight changes weekly. Tumor volume was measured weekly using a caliper device and calculated with the following formula: Tumor volume=0.5×(length×width^2). Studies were terminated before tumor volumes reached […]. TGI (% tumor growth inhibition) was determined as
Treatment was administered daily until the end of the study. Tumor volume was measured weekly using a caliper device and calculated with the following formula: Tumor volume=0.5×(length×width^2). Mice were considered as dead when tumor size reached 400 mm^3. […] SEM refers to standard error of measurement.

CT26 tumors = experiment: CT26 syngeneic colon tumor model, combination with avelumab; assay type: in vivo, Balb/c mice; details: for % TGI (D15) / % TGI (D17) / % TGI (D20): Compound 1 200 mg/kg BID, Avelumab 10 mg/kg
Excerpt: FIGS. 5A-5E show combinatorial anti-tumor effects of an IDO1 inhibitor and an anti-PD-L1 (avelumab) in the sc CT26 syngeneic mouse colon tumor model in Balb/c mice. […] FIGS. 5B-5E show the individual tumor growth curves.
Avelumab is a fully human anti-PD-L1 IgG1 monoclonal antibody, and thus, is not optimized for mouse.

B16-F10 cells = experiment: B16-F10 melanoma model, combination with anti-PD-L1 and anti-4-1BB; assay type: in vivo, C57BL/6J mice; details: PF-06840003 600 mg/kg BID, anti-4-1BB 1 mg/kg, anti-PD-L1 10 mg/kg d9, 12, 15, 18
Protocol: B16-F10 cells were obtained from the ATCC and grown following instructions on ATCC's website. 2×10^5 cells were implanted in […] PBS sc in the right flank of female C57BL/6J (Jackson labs) mice. Mice (n=20) were randomized into treatment groups and treatment initiated on day 9 after implant at a mean tumor size of 60 mm3. Antibody treatments were given as i.p. injection on day 9, 12, 15 and 18. anti-PD-L1 antibody (clone 10F.9G2; rat IgG2b) was purchased from BioxCell. anti-4-1BB antibody (MAB9371; rat IgG1—murinized) was purchased from R&D systems. […] All animal experimentation was approved in advance by and executed following Pfizer's IACUC.

[6] = system: panel of receptors, ion channels, transporters and enzymes (64 targets in total); experiment: Cerep Wide Ligand Profile Screen; details: initial concentration of 200 μM
Protocol: Three hits were noted (defined by a response greater that 50% of a maximal response) and follow up curves were performed by Cerep.

[7] = Passive permeability in RRCK cells; assay type: in vitro ADME, canine; details: dog, MDCK, read-out: intrinsic permeability, apical to basolateral (A to B)
Protocol: In vitro Absorption: passive permeability was evaluated in Ralph-Russ canine kidney (RRCK) cells; high intrinsic permeability with an apical to basolateral (A to B) value of 25.5×10^−6 cm/sec. CNS Penetration: CNS distribution was investigated in male rats.

[8] = system: IDO1-expressing SKOV3 cells co-cultured with human PBMC; experiment: T cell - SKOV3 co-culture assay with human serum (II.9); assay type: cell-based; details: SK-OV-3, read-out: T-cell proliferation in SKOV3 co-culture system (50% serum) IDO1 IC50 ± SD (n)
Protocol: Three different concentrations of human serum (10%, 25% or 50%) were used to mimic the consequences of protein binding in human. […] T cell proliferation was measured by incorporation of ^3H-thymidine after 48 h of co-culture. IC50 of T cell proliferation, tryptophan (Trp) decrease and kynurenine (Kyn) increase were determined. FIG. 7D illustrates Trp to Kyn conversion in 10% HS. […] FIG. 7F illustrates Trp to Kyn conversion in 50% HS. Tryptophan and kynurenine concentrations in supernatant were assessed using LC-MS/MS after 24 h of co-culture. […]
Human peripheral blood mononuclear cells were isolated from buffy coats, purified by density gradient centrifugation on Lymphoprep™ (StemCell), stimulated with CD3/CD28 beads (Invitrogen) and hIL-2 (Novartis) in IMDM with 10%, 25% or 50% of HS, for 15 min and then added to the SKOV3 plates. […] After an incubation of 24 h, the tryptophan and kynurenine concentrations in conditioned medium were assessed using LC-MS/MS. ^3H-thymidine was added to the co-cultures for another 24 h incubation period. Thymidine incorporation was measured using a TopCount counter (Perkin Elmer). Data were fitted and IC50 determined by using the Prism™ software (GraphPad software Inc.).

[9] = system: PancO2 pancreas cancer cells; experiment: PancO2 syngeneic model survival, combination with anti-CTLA4 antibody; assay type: in vivo, C57/Bl6 mice; details: dead when tumor size reached 400 mm^3, anti-CTLA4 200 μg i.p., Compound 2 100 mg/kg BID
Protocol: In vivo efficacy studies of IDO1 inhibitor were performed on PancO2 syngeneic tumor model of C57/Bl6 mice implanted sub-cutaneously essentially as described in Example II.5. Five million PancO2 pancreas cancer cells were implanted sub-cutaneously to 7 weeks old C57/Bl6 mice (day 0). […] Anti-CTLA4 (Clone 9 h10, 200 μg/mouse, i.p. in PBS) was administered at day 11, 14 and 17. […] Treatment was administered daily until the end of the study. Tumor volume was measured weekly using a caliper device and calculated with the following formula: Tumor volume=0.5×(length×width^2). Mice were considered as dead when tumor size reached 400 mm^3.

T1 sequence (P14902 whole entry): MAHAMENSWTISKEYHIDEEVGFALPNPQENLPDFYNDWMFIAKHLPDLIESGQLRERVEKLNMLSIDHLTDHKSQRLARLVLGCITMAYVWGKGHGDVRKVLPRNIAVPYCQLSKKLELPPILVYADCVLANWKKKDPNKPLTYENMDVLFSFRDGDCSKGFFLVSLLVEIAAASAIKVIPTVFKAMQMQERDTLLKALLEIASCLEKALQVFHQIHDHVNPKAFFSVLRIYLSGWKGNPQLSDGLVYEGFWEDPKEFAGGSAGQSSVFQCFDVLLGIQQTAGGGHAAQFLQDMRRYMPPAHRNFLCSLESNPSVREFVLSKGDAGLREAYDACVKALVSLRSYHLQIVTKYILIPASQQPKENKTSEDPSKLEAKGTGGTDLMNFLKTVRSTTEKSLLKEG
T2 sequence (P48775 whole entry): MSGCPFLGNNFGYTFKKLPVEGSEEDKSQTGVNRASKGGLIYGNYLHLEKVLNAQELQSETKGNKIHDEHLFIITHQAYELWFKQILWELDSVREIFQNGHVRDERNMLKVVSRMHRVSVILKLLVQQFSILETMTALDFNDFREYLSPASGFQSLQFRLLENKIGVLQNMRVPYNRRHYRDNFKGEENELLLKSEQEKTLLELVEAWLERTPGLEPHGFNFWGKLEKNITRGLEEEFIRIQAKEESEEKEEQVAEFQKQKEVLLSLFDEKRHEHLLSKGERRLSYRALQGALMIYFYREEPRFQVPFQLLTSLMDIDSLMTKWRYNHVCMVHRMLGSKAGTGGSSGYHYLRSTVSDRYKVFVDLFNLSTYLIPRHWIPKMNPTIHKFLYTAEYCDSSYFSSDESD
Sequence of mouse IDO1 (P28776 whole entry): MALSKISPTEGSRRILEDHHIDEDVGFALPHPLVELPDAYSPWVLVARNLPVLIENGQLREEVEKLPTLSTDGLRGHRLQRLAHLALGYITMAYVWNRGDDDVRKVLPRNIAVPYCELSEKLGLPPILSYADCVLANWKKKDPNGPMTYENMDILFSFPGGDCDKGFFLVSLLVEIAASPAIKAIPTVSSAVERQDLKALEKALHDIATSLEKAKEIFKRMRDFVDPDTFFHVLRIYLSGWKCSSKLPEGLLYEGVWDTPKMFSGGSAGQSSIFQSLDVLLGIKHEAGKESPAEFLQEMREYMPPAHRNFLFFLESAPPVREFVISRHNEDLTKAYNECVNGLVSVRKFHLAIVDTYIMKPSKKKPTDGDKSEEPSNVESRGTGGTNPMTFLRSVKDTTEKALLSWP
Sequence of dog IDO1 (A0A8I3N1Y1 1-402): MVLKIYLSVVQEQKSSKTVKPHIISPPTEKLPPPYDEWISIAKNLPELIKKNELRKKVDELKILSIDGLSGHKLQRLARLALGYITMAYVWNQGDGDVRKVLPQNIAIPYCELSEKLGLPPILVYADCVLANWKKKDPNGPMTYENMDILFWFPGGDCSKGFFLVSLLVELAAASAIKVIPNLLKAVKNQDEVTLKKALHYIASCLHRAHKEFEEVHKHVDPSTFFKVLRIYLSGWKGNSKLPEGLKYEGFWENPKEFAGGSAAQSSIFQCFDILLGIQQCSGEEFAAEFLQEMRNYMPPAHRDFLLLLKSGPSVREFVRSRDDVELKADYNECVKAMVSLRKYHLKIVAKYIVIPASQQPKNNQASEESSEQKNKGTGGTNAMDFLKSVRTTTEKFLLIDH
Sequence of mouse TDO2 (P48776 whole entry): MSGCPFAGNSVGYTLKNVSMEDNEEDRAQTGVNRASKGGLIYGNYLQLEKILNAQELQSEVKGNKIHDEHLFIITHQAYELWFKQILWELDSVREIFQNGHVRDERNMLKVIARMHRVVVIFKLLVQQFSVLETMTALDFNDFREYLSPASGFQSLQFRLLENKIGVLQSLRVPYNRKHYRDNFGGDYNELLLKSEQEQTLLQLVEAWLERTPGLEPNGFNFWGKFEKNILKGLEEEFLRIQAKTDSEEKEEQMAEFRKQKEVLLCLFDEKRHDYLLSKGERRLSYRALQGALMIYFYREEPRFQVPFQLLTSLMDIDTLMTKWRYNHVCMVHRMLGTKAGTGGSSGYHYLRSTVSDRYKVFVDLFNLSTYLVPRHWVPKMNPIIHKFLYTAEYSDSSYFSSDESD

Row | Molecule | mechanism of inhibition, preferred model fit (IDO1 [1]) | mechanism of inhibition, preferred model fit (dog IDO1) | IC50 (mouse IDO1) [µM] | IC50 (TDO2 [2]) [µM] | IC50 (mouse TDO2) [µM] | A172 and THP-1 cells TDO2 inhibition (TDO2 [3]) | inhibitory activity in any of the human or mouse TDO2 assays (TDO2 [3]) | % TGI (D15) (CT26 tumors) [%] | % TGI (D17) (CT26 tumors) [%] | % TGI (D20) (CT26 tumors) [%] | also measured
1 | O=C1CC(c2c[nH]c3ccc(F)cc23)C(=O)N1 (racemic) [Compound 1, 3-(5-fluoro-1H-indol-3-yl)pyrrolidine-2,5-dione] | uncompetitive inhibition | noncompetitive inhibition | 1.5 | > 50 | > 50 | no inhibition | did not display any significant inhibitory activity | 38 | 41 | 34 | IC90 (IDO1 [4]): 10.7 µM; Mean tumor volume on day 25 (4T1 breast cancer cells): 443.7 mm^3; TGI (Tumor growth inhibition) (4T1 breast cancer cells; day 25): 43.4%; Mean tumor volume on day 42 [5]: 457.0 mm^3; TGI (Tumor growth inhibition) ([5]; day 42): 26.2%; % TGI (D17) (B16-F10 cells): 32%; % TGI (D20) (B16-F10 cells): 49%; hits (response greater than 50% of a maximal response) in off target panel [6]: Three; Papp A→B [7]: 255 nm/s
2 | O=C1C[C@H](c2c[nH]c3ccc(F)cc23)C(=O)N1 [Compound 2, (−)-(R)-3-(5-fluoro-1H-indol-3-yl)pyrrolidine-2,5-dione] | uncompetitive inhibition | noncompetitive inhibition | 0.73 | > 50 | > 50 | no inhibition | did not display any significant inhibitory activity | – | – | – | IC50 [8]: 0.08 ± 0.05 µM; IC90 (IDO1 [4]; conversion with unbound fraction in whole blood 0.419): 5.69 µM; % Survival at Day 55 [9]: 0%
3 | Avelumab: fully human anti-PD-L1 IgG1 monoclonal antibody | – | – | – | – | – | – | – | 54 | 59 | 51 | tumor growth inhibition (TGI), summary (CT26 tumors): about 50%
